Assay results published in patent US6706663B2, “Herbicidal 3-heterocyclic substituted benzisothiazole and benzisoxazole compounds” (Wyeth, priority 2000, dated 2004).

Key:
[1] = tested on: ECHCG (Echinochloa crus-galli); assay: Postemergence herbicidal evaluation; type: in vivo, (L.) Beau; conditions: postemergence
Summary of the method: (§1)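 Visual 0–9 injury scores versus control plants, covering stand, vigour, malformation, size, chlorosis and general appearance, taken four to five weeks post-spray and averaged over replicate tests. Plants were sprayed at roughly two weeks old and held on greenhouse benches.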

[2] = tested on: GLXMAW (Soybean, Williams); assay: Postemergence herbicidal evaluation; type: in vivo, Glycine max, (L.) Merr. cv Williams; conditions: postemergence
Summary of the method: as §1

[3] = tested on: ZEAMX (Corn, Field); assay: Postemergence herbicidal evaluation; type: in vivo, Zea mays, L.; conditions: postemergence
Summary of the method: as §1

[4] = tested on: ABUTH (Abutilon theophrasti); assay: Preemergence herbicidal evaluation; type: in vivo, Medic.; conditions: preemergence, rated 4-5 weeks after treatment
[5] = tested on: IPOHE (Ipomoea hederacea); assay: Preemergence herbicidal evaluation; type: in vivo, (L.) Jacq.; conditions: preemergence, rated 4-5 weeks after treatment
[6] = tested on: GLXMAW (Soybean, Williams); assay: Preemergence herbicidal evaluation; type: in vivo, Glycine max, (L.) Merr. cv Williams; conditions: preemergence, rated 4-5 weeks after treatment
[7] = tested on: GLXMA (Soybean); assay: Preemergence herbicidal evaluation; type: in vivo, Glycine max, (L.) Merr.; conditions: preemergence, rated 4-5 weeks after treatment
[8] = tested on: ZEAMX (Corn, Field); assay: Preemergence herbicidal evaluation; type: in vivo, Zea mays, L.; conditions: preemergence, rated 4-5 weeks after treatment
[9] = tested on: ECHORC (Echinochloa oryzoides); assay: Flooded paddy, preemergence weed control; type: in vivo, Echinochloa oryzoides (Ard.) Fritsch.; conditions: rated 3-4 weeks after treatment, 0-9 rating scale
Summary of the method: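 Seeds or propagating organs were sown in the top 0.5 cm of silt loam soil, flooded, and the water kept 1.5 to 3 cm above the soil surface throughout. Plants were grown in the greenhouse and rated visually on a 0-9 scale against a control.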

[10] = tested on: ORYSAT (Rice, Tebonnet); assay: Flooded paddy, post-transplant rice tolerance; type: in vivo, Oryza sativa, (L.) Tebonnet; conditions: flooded paddy, post-transplant rice, rated 3-4 weeks after treatment, 0-9 rating scale
Summary of the method: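 Visual 0–9 injury rating against a control, covering stand, vigor, malformation, size, chlorosis and overall appearance. Treatment was post-transplant onto flooded containers (water 1.5–3 cm deep, silt loam) holding two ten-day-old cv. Tebonnet seedlings, maintained on greenhouse benches.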

Structure (SMILES) | ECHCG herbicidal rating ([1]; rate 0.0320 kg/ha) | ECHCG herbicidal rating ([1]; rate 0.0620 kg/ha) | GLXMAW herbicidal rating ([2]; rate 0.0320 kg/ha) | GLXMAW herbicidal rating ([2]; rate 0.0620 kg/ha) | ZEAMX herbicidal rating ([3]; rate 0.0320 kg/ha) | ZEAMX herbicidal rating ([3]; rate 0.0620 kg/ha) | Preemergence herbicidal rating ABUTH ([4]; rate 0.0620 kg/ha) | Preemergence herbicidal rating ABUTH ([4]; rate 0.1250 kg/ha) | Preemergence herbicidal rating ABUTH ([4]; rate 0.2500 kg/ha) | Preemergence herbicidal rating IPOHE ([5]; rate 0.0620 kg/ha) | Preemergence herbicidal rating IPOHE ([5]; rate 0.1250 kg/ha) | Preemergence herbicidal rating IPOHE ([5]; rate 0.2500 kg/ha) | Preemergence herbicidal rating GLXMAW ([6]; rate 0.0620 kg/ha) | Preemergence herbicidal rating GLXMAW ([6]; rate 0.1250 kg/ha) | Preemergence herbicidal rating GLXMAW ([6]; rate 0.2500 kg/ha) | Preemergence herbicidal rating GLXMA ([7]; rate 0.0620 kg/ha) | Preemergence herbicidal rating GLXMA ([7]; rate 0.1250 kg/ha) | Preemergence herbicidal rating GLXMA ([7]; rate 0.2500 kg/ha) | Preemergence herbicidal rating ZEAMX ([8]; rate 0.0620 kg/ha) | Preemergence herbicidal rating ZEAMX ([8]; rate 0.1250 kg/ha) | further results
Cn1c(C(F)(F)F)cc(=O)n(-c2ccc3snc(C4OCC(CS(C)(=O)=O)O4)c3c2)c1=O (single isomer, unassigned) [Compound 86, 1-methyl-3-[3-[4-[(methylsulfonyl)methyl]-1,3-dioxolan-2-yl]-1,2-benzisothiazol-5-yl]-6-(trifluoromethyl)uracil] | 4.0 | 5.0 | 9.0 | 9.0 | 4.0 | 4.0 | 9.0 | 9.0 | 9.0 | 4.0 | 9.0 | 9.0 | 7.0 | 9.0 | 9.0 | 5.0 | 9.0 | 9.0 | 5.0 | 8.0 | Preemergence herbicidal rating ZEAMX ([8]; rate 0.2500 kg/ha): 9.0; ECHORC herbicidal rating ([9]; rate 0.0320 kg/ha): 0.0; ECHORC herbicidal rating ([9]; rate 0.1250 kg/ha): 3.0; ORYSAT herbicidal rating (transplanted rice tolerance) ([10]; rate 0.0320 kg/ha): 0.0; ORYSAT herbicidal rating (transplanted rice tolerance) ([10]; rate 0.1250 kg/ha): 5.0
Cn1c(C(F)(F)F)cc(=O)n(-c2ccc3snc(C4OCC(CS(C)(=O)=O)O4)c3c2)c1=O (single isomer, unassigned) [Compound 87, 1-methyl-3-[3-[4-[(methylsulfonyl)methyl]-1,3-dioxolan-2-yl]-1,2-benzisothiazol-5-yl]-6-(trifluoromethyl)uracil] | 3.0 | 4.0 | 9.0 | 8.5 | 3.5 | 3.5 | 9.0 | 9.0 | 9.0 | 5.0 | 6.0 | 9.0 | 9.0 | 9.0 | 9.0 | 9.0 | 9.0 | 9.0 | 5.5 | 8.0 | Preemergence herbicidal rating ZEAMX ([8]; rate 0.2500 kg/ha): 8.5; ECHORC herbicidal rating ([9]; rate 0.0320 kg/ha): 0.0; ECHORC herbicidal rating ([9]; rate 0.1250 kg/ha): 0.0; ORYSAT herbicidal rating (transplanted rice tolerance) ([10]; rate 0.0320 kg/ha): 0.0; ORYSAT herbicidal rating (transplanted rice tolerance) ([10]; rate 0.1250 kg/ha): 3.0
